We go through three compounds from patent US7115721B2, “Microorganism, its product and utilization thereof” (Astellas Pharma Inc., priority 2002, dated 2006).

In brackets after ≈: the same amount, converted by molar mass. Where two headings read alike, the source gives them in different places.

In series [1] the target is T1, tyrosinase originating from B16 melanoma (Mus musculus, UniProt P11344).
T1 construct: The supernatant liquid was collected and preserved in ice until the time it was used (crude enzyme solution); endogenous in cells; host or cells: B16 melanoma cells, homogenate supernatant (crude enzyme solution)
T1 sequence (P11344 19-533): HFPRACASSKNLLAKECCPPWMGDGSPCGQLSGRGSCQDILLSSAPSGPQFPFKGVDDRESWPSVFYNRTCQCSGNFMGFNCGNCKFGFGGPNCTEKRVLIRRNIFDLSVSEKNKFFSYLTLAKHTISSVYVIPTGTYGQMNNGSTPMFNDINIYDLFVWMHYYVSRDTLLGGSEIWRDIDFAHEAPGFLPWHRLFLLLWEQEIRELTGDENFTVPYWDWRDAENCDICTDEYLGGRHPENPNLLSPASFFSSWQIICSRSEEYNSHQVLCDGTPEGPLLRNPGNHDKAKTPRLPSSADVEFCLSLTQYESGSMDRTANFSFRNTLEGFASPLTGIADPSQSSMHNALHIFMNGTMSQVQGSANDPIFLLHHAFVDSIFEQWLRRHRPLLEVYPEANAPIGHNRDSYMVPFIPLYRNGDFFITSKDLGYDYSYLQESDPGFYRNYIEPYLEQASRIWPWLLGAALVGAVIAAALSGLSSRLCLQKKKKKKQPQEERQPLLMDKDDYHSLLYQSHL
Briefly: Inhibitory activity to tyrosinase originating from B16 melanoma. Type of series: biochemical. As to conditions: crude enzyme solution, L-dopa substrate, pH 6.8, 25° C., two hours. The method, then: Inhibitory Activity to Tyrosinase Originating from B16 Melanoma
(§1) About 2.0×10^5/ampoule B16 melanoma cell strain preserved in a frozen state in liquid nitrogen was dissolved in a water bath at 37° C. and immediately suspended in 10 ml of a culture medium. After centrifugation at 800 rpm for five minutes, the supernatant liquid was discarded and the cells were suspended in 10 ml of a fresh culture medium. The suspension was again centrifuged under the same conditions, the supernatant liquid was discarded, and the cells were again suspended in a fresh culture medium.
About 4.0×10^5 cells were seeded in a 75 cm^2 flask. The cells were cultured at 37° C. in a 5% CO2 atmosphere for one week while replacing the medium every 2–3 days. The culture medium in which the cells have grown to bring the medium into a subconfluent state was discarded. The surface of the cultured cells was washed with PBS(−), following which the cells were stripped using 0.25% trypsin. A medium containing serum was added to terminate the trypsin reaction. After loosening the cells by pipetting, the cell suspension was transferred to a centrifugal tube. […] The number of cells was counted using a cytometer. […]
L-dopa was adjusted to a concentration of 0.8 mg/ml with the 0.05 M phosphate buffer (pH 6.8). […] Then, the absorption at 475 nm was measured.

The subject of series [2] is B16 melanoma (B-16/2D2 cells). The series can be described thus: Inhibitory activity to melanogenesis of B16 melanoma (extracellular and intracellular melanin, amount of proteins). The format is cell-based. As to conditions: for IC50: Mus musculus, B16, 120 h. The method, then: Inhibitory Activity to Melanogenesis of B16 Melanoma
as §1
About 4.0×10^5 cells were seeded in a 75 cm^2 flask. The cells were cultured at 37° C. in a 5% CO2 atmosphere for one week while replacing the medium every 2–3 days. The culture medium in which the cells have grown to bring the medium into a subconfluent state was discarded. The surface of the cultured cells was washed with PBS(−), following which the cells were stripped using 0.25% trypsin. A medium containing serum was added to terminate the trypsin reaction. After loosening the cells by pipetting, the cell suspension was transferred to a centrifugal tube. After centrifugation at 800 rpm for five minutes, the supernatant liquid was discarded and the cells were suspended in a fresh culture medium (not containing phenol red). The number of cells was counted using a cytometer.
The cell suspension was diluted with a medium (not containing phenol red) to make the cell concentration 2×10^5 cells/ml. The resulting suspension was seeded in a 96-well plate in an amount of 100 μl/well. The cells were incubated at 37° C. in a 5% CO2 atmosphere for one day. Solutions of the compound (I) of the present invention at various concentrations were prepared in a medium (not containing phenol red). The resulting solutions were added to a 96-well plate in an amount of 100 μl/well. The cells were incubated at 37° C. in a 5% CO2 atmosphere for five days and evaluated according to the following method.
1. Amount of Extracellular Melanin
The culture medium was transferred to an assay plate in an amount of 150 μl/well while taking care so that foam was not produced to measure OD450 using a microplate reader.
2. Amount of Intracellular Melanin
The plate containing the cells was inverted to discard the remaining culture medium. 0.1 N NaOH-0.1% Triton X-100 was added in an amount of 150 μl/well to dissolve the cells by pipetting. The culture medium was transferred to an assay plate in an amount of 100 μl/well to measure OD450 using a microplate reader.
Distilled water was added to the assay plate in an amount of 156 μl/well. Then, 4 μl/well of the cell solution remaining after measuring the amount of intracellular melanin was added. Next, 40 μl/well of a Bio-rad protein assay die solution was added, followed by shaking for two minutes. After allowing to stand for five minutes, OD590 was measured using a microplate reader.

Series [3] relates to melanin pigmentation of skin after exposure to sunlight. Briefly: Whitening effect on skin of subjects exposed to sunlight. Type of series: in vivo, human. The following applies: for Whitening effect: applied morning and evening over four weeks, 20 subjects. The method, then:
The whitening effect of the compound (I) of the present invention was measured according to the following method. 20 subjects were exposed to sunlight for […] from 11:00 a.m. to 1:00 p.m. over two days in summer. Five days after the exposure to sunlight, a water phase and an alcohol phase having compositions respectively shown in FIG. 5 and FIG. 6 were mixed and dissolved, and the solution was applied to the skin on the medial side of the upper arm of each exposed subject once for every morning and evening over four weeks. [table] [table] After four weeks, the whitening effect was judged for each subject. The effect was judged according to the following standards.

The target of series [4] is Tyrosinase originating from mushroom. The series can be described thus: Inhibitory activity to tyrosinase originating from mushroom. Type of series: biochemical. As to conditions: L-dopa substrate, pH 6.8, 25° C., 10 minutes. The protocol:
Inhibitory Activity to Tyrosinase Originating from Mushroom Tyrosinase originating from mushroom (Sigma company) was dissolved in a 0.05 M phosphate buffer (pH 6.8) to a concentration of 20 U/ml. L-dopa was adjusted to a concentration of 0.3 mg/ml with a 0.05 M phosphate buffer (pH 6.8). A 96-well plate was charged with 30 μl of the L-dopa solution and 30 μl of solutions of the compound (I) of the present invention at various concentrations, immediately followed by mixing with 30 μl of the tyrosinase solution originating from mushroom. After incubation at 25° C. for 10 minutes, the absorbance at 450 nm was measured using a microplate reader.

Setting [5] is: concentration in which whitening actions were clearly exhibited.

As to `[C-]#[N+]/C=C/c1ccc(O[C@@H]2O[C@@H](C)[C@H](O)[C@@H](O)[C@H]2O)cc1` [Compound (I), (E)-4-(2-isocyanovinyl)phenyl α-L-rhamnopyranoside], the IC50 in series [1] was 1.85 nM; in series [2] (read-out: IC50 Extracellular melanogenesis) it was 0.052 µg/mL (≈ 0.179 µM); in series [2] (read-out: IC50 Intracellular melanogenesis) it was 0.074 µg/mL (≈ 0.254 µM); in series [2] (read-out: IC50 Protein synthesis), 0.9 µg/mL (≈ 3.09 µM). For the same compound, the “Effects on the amount of proteins in the cells” value in series [2] (setting [5]) is “nor were there any effects”. The “Effects on the number of grown cells” value in series [2] (setting [5]) is reported as “nor were there any effects”. Moreover, the “Morphological changes in the cells by microscopic inspection” value in series [2] (setting [5]) is recorded as “no morphological changes”. Besides, the Whitening effect entry in series [3] (0.1 wt % test agent) and in series [3] (0.3 wt % test agent) was “Good (50–80% of subjects exhibited a complete response or partial response)” in each case. In addition, the “Abnormalities of the skin (erythema, edema) or side effects” value in series [3] (topical application over four weeks in subjects) was “neither abnormalities of the skin, such as erythema or edema, nor any side effects”. The “IC50 Mushroom tyrosinase” value in series [4] was found to be 0.0019 µg/mL (≈ 0.00652 µM).
On to `O=c1cc(CO)occ1O` [Kojic acid, reference compound], for which, in series [3] (1.0 wt % test agent), the Whitening effect result was “Fair (30–50% of subjects exhibited a complete response or partial response)”.
For the compound `Oc1ccc(O)cc1` [Hydroquinone, reference compound], the Whitening effect entry in series [3] (1.0 wt % test agent) was “Good (50–80% of subjects exhibited a complete response or partial response)”.

The term IC50 denotes the concentration needed to halve the response being measured.
